The record followed here is patent US12128010B2, “Semifluorinated compounds and their compositions” (NOVALIQ GMBH, priority 2015, dated 2024).

A short description of data set [1]: Differential Scanning Calorimetry of mixtures. The format is physicochemical.
Procedure: Differential Scanning calorimetry (DSC 1, Mettler Toledo, Greifensee, Switzerland) is used to characterize structure and phase behavior of mixtures of CF3(CF2)5—CH(CH3)—(CH2)5—CH3 and CF3(CF2)5(CH2)7CH3. DSC was employed to obtain data on transitions by temperature rising scans with heating rate of 1° C./min. Sealed standard aluminum crucibles (40 μl, Mettler Toledo) were used.
Data set [2] is described as follows: Evaporation time of mixtures. Format: physicochemical. The settings on record: FIG. 1, in words. The procedure: The evaporation time of mixtures of the semifluorinated alkane CF3(CF2)5(CH2)7CH3 and CF3(CF2)5—CH(CH3)—(CH2)5—CH3 was evaluated. A droplet of 10 μL volume of each mixture was placed on a glass surface at room temperature. Time until evaporation was recorded by video-monitoring.

A short description of data set [3]: Refractive index of mixtures. The format is physicochemical. The settings on record: FIG. 2, in words. The method, then: The refractive index of the mixtures was also determined. For topically applied ophthalmic compositions, the refractive index of the composition should preferably similar, or adapted to that of the eye and lens, for instance as close to that of physiological tear fluid as possible. If the refractive index of a composition is not similar, when applied to the surface of the eye, a patient may experience blurring or impaired vision. […] By varying the amount of this semifluorinated alkane in the mixture, it may also be feasible to adapt the composition to the requirements of the intended ophthalmic use, for instance adapting to a patient with an altered tear fluid composition and refractive index, due to an eye condition and/or age.

The subject of another data set is Rabbit corneas. Nature of the data set: Ex Vivo Eye Irritation Test (EVEIT), corneal healing. The method, then: Anim., 2008 (36) p 25-32; and N. Schrage et al, Graefes Arch Clin Exp Ophthalmol 2012 (250), 1330-1340).
Method. Rabbit corneas were obtained and placed in an artificial anterior ocular chamber which was gently filled with serum-free minimal essential medium (Eagle's MEM) containing Earle's salts and HEPES buffer for nutrition. The medium was contstantly replenished by a micropump to imitate the physiological condition of the eye. The culture chambers were held at 32° C. under normal air without supplementary CO2 and >95% relative humidity. Five corneas per test substance (n=5) were used except for the postive control with which two corneas (n=2) were tested.
After 12 h of stabilization in the culture chamber, the corneas were evaluated by microscopy and corneas with intact epithelium and without opacities were selected. Four small abrasions (2.3-4.3 mm^2) were applied to the surface of the selected corneas with a cornea drill. All defects were monitored by fluorescein sodium staining (0.17% aq. solution) and microscopy.
The test substances were administered one hour after induction of the corneal erosion and were applied six times daily onto the apex of the corneas (30-50 μL every four hours). A soft-tipped cannula, with continuous suction was placed on the lowest part of the corneoscleral region within the culturing chamber to remove any excess fluid. Experiments were terminated after 3 days of application. Biomicroscopic images of the corneas were taken daily to document the corneal healing process using a phase-contrast microscope integrated camera (KY-F1030U, JVC, (Bad Vilbel, DE) mounted on a Z16 APO Microscope (Wetzlar, DE)). All defects were monitored by fluorescein sodium stains (0.17% aq. solution) with yellow green fluorescence indicating the areas of epithelial defects. Erosion sizes were determined using a software tool of the microscope (DISKUS). At the end of the 3 days, the experiment was terminated and all corneas were fixed in 3.7% formaldehyde and stained with a hematoxylin-eosin dye for microscopic evaluation. To monitor the metabolic activity of the cornea, glucose and lactate concentrations were photometrically quantified in the outflow medium from the artificial anterior chambers.

Setting [4] is: hematoxylin-eosin stained corneas after 3 days of application.

Entries after “also recorded” stand apart in the source; their conditions may differ.

In the case of `CCCCCCC(C)C(F)(F)C(F)(F)C(F)(F)C(F)(F)C(F)(F)C(F)(F)F` (centres unmarked) [CF3—(CF2)5—CH(CH3)—(CH2)5—CH3, 2-perfluorohexyloctane], in data set [1] (in words), the “effect on melting enthalpy when present in a mixture with F6H8” value is listed as “decreased” and the “effect on melting temperature when present in a mixture with F6H8” value was “significant reduction in the melting temperature”. Besides, the “effect of increasing percentage on evaporation time of the mixtures” value in data set [2] is reported as “decreases the evaporation time”. Besides, the “effect of increased content on refractive index of the mixtures” value in data set [3] was “increasing refractive index value”.
Regarding `CCCCCCCCC(F)(F)C(F)(F)C(F)(F)C(F)(F)C(F)(F)C(F)(F)F` [Composition 0, 1-perfluorohexyloctane], in data set [1] (DSC, heating rate 1° C./min), the “Low temperature transition Endset” value is −38.32 °C, the “Low temperature transition Onset” value is −45.47 °C, the “Low temperature transition Peak” value was −40.37 °C and the “Low temperature transition ΔH” value is -0.69 J/g. Also, in data set [1] (DSC, heating rate 1° C./min), the “Melting transition Endset” value is −2.14 °C, the “Melting transition Onset” value is −6.33 °C and the “Melting transition Peak” value was −4.53 °C. Further, in data set [1] (DSC, heating rate 1° C./min, label = wt % CF3—(CF2)5—CH(CH3)—(CH2)5—CH3 in mixture with CF3(CF2)5(CH2)7CH3), the “Melting transition ΔH” value was -36.57 J/g.
As for benzalkonium chloride [0.01% BAC], the “Corneal Erosion Size, Mean (SD)” value with Rabbit corneas (Day 0 (before application)) is 11.57 (0.86) mm^2; in the data set with Rabbit corneas (Day 1, applied six times daily, 30-50 μL) it was 5.91 (0.28) mm^2; with Rabbit corneas (Day 2, applied six times daily, 30-50 μL), 8.74 (7.6) mm^2; in the data set on Rabbit corneas (Day 3, applied six times daily, 30-50 μL) it was 17.46 (6.43) mm^2. Besides, in the data set on Rabbit corneas (setting [4]), the “Day 3 Histological Observations: Descemet membrane and endothelium” value is “Descemet membrane is present with intact endothelium”. The “Day 3 Histological Observations: epithelium, stroma, corneal structure” value in the data set with Rabbit corneas (setting [4]) was “Severe alterations of the superficial cornea with disintegration of; also recorded: Reduced staining of background substance indicating chemical”. Also, in the data set on Rabbit corneas (setting [4]), the “Day 3 Histological Observations: keratocytes” value is “Severe reduction in number of keratocyte cells which also appear”. In addition, the “course of the induced epithelial erosions/lesions” value in the data set on Rabbit corneas (over the three days of the experiment, in words) is listed as “progressive increase”.
